Laboratory results as given in patent US9062051B2, “Compounds and pharmaceutical compositions thereof for the treatment of proliferative disorders” (GALAPAGOS NV, priority 2014, dated 2015).
Where two headings read alike, the source gives them in different places.

Legend:
Format in all cases: biochemical
[1] = molecular target: T1, EphA2 (UniProt Ref: P29317) (Homo sapiens, UniProt P29317); assay: EphA2 assay (Reaction Biology HotSpot radioactive kinase assay); conditions: ATP 10 μM; read-out: EphA2 potency IC50
T1 construct: purchased Reaction Biology
In short: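 Radiometric HotSpot assay measuring ^33P incorporation from [^33P]-γ-ATP into poly[Glu:Tyr] (4:1) (0.2 mg/mL) with 10 μM ATP. IC50 from serial 1/3 dilutions starting at 10 or 3 μM.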

[2] = molecular target: T2, EphB4 (UniProt Ref: Q541P7) (Homo sapiens, UniProt P54760); assay: EphB4 assay (Reaction Biology HotSpot radioactive kinase assay); conditions: ATP 10 μM; read-out: EphB4 potency IC50
T2 construct: purchased Reaction Biology
T2 sequence (P54760 16-987): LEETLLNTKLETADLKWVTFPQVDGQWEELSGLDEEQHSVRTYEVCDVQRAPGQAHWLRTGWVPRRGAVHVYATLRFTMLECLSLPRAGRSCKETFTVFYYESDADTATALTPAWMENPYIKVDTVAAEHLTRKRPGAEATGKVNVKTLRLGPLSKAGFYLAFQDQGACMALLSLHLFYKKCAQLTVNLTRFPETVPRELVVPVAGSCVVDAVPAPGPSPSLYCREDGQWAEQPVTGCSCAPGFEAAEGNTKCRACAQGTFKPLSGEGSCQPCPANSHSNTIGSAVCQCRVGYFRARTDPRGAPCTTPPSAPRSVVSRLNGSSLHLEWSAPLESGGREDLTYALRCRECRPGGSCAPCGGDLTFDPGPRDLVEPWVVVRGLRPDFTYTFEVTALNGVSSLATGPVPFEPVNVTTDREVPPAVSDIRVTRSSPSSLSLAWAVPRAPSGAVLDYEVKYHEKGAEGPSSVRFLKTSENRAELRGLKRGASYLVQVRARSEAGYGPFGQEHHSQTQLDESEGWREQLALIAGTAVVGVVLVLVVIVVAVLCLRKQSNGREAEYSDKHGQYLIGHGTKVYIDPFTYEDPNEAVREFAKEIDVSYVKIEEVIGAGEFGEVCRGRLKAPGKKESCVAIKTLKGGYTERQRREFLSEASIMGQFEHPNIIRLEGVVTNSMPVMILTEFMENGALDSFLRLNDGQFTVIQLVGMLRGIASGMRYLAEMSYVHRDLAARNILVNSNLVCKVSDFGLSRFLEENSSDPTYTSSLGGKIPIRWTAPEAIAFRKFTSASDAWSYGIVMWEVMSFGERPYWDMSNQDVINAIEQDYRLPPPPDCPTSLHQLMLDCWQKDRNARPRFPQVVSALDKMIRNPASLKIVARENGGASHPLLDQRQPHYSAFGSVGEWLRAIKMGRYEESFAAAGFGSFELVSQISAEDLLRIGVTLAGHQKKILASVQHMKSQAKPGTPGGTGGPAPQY
Procedure: Inhibition of EphB4 (UniProt Ref: Q541P7) by a test compound is determined by a commercially available Reaction Biology proprietary nanoliter radioactive HotSpot^SM assay (Reaction Biology, One great valley parkway, Suite 2, Malvern Pa., 19355, USA). The principle of the assay consists of the measurement of incorporated ^33P into poly[Glu:Tyr] (4:1) (0.2 mg/mL) when the substrate is phosphorylated by the enzyme using [^33P]-γ-ATP and ATP (10 μM).
To determine the IC50, a serial dilution of compound is tested starting from 10 or 3 μM (highest dilution) with a 1/3 dilution.

[3] = molecular target: T3, Recombinant EphA7 (Homo sapiens, UniProt Q15375); assay: EphA7 assay (33P incorporation into poly GT, filter plate)
T3 construct: purchased Carna 08-126
Procedure: The principle of the assay consists of the measurement of incorporated ^33P into the substrate poly GT when phosphorylated by the enzyme EphA7 using [^33P]-γ-ATP and ATP. Unincorporated ^33P is removed by loading the samples on a filter plate (using a harvester, Perkin Elmer) and 6 subsequent washing steps. ^33P incorporated in polyGT is measured on a Topcount after addition of microscint to the filter plates (Perkin Elmer).
Recombinant EphA7 (Carna Cat#08-126, 2 ng per well) was incubated with 0.1 mg/mL Poly(Glu,Tyr)sodium salt (4:1), MW 20 000-50 000 (Sigma catalog number P0275) in kinase reaction buffer (10 mM MOPS pH 7.2, 5 mM DTT, 0.01% Triton-X100, 5 mM MnCl2, 0.5 mM Na3VO4, 5 mM beta-glycerolphosphate), 0.15 μM non-radioactive ATP, 0.125 μCi/25 μl ^33P-gamma-ATP (Perkin Elmer, catalog number NEG602K) final concentrations with or without 5 μL containing test compound or vehicle (DMSO, 1% final concentration), in a total volume of 25 μL, in a polypropylene 96-well plate (Greiner, V-bottom). After 90 min at 30° C., reactions were stopped by adding of 25 μL/well of 150 mM phosphoric acid. All of the terminated kinase reaction was transferred to prewashed (75 mM phosphoric acid) 96 well filter plates (Perkin Elmer catalog number 6005177) using a cell harvester (Perkin Elmer). Plates were washed 6 times with 300 μL per well of a 75 mM phosphoric acid solution and the bottom of the plates was sealed. 40 μL/well of Microscint-20 was added, the top of the plates was sealed and readout was performed using the Topcount (Perkin Elmer). The ability of a test compound to inhibit the kinase activity was determined using counts per minutes (cpm) measured by the Topcount as:
Cpm (cpd): cpm determined for sample with test compound present
Cpm (control): cpm determined for sample with positive control inhibitor (10 μM staurosporine)
Cpm (vehicle): cpm determined in the presence of vehicle (1% DMSO)
Dose dilution series were prepared for the compounds enabling the testing of dose-response effects in the EphA7 assay and the calculation of the IC50 for each compound. Each compound was routinely tested at concentration of 20 μM followed by a 1/5 serial dilution, 10 points in a final concentration of 1% DMSO. When potency of compound series increased, more dilutions may be prepared and/or the top concentration may be lowered (e.g. 5 μM, 1 μM).

[4] = EphA7 potency, 0.15 μM ATP, read-out: IC50

T1 sequence (P29317 24-976): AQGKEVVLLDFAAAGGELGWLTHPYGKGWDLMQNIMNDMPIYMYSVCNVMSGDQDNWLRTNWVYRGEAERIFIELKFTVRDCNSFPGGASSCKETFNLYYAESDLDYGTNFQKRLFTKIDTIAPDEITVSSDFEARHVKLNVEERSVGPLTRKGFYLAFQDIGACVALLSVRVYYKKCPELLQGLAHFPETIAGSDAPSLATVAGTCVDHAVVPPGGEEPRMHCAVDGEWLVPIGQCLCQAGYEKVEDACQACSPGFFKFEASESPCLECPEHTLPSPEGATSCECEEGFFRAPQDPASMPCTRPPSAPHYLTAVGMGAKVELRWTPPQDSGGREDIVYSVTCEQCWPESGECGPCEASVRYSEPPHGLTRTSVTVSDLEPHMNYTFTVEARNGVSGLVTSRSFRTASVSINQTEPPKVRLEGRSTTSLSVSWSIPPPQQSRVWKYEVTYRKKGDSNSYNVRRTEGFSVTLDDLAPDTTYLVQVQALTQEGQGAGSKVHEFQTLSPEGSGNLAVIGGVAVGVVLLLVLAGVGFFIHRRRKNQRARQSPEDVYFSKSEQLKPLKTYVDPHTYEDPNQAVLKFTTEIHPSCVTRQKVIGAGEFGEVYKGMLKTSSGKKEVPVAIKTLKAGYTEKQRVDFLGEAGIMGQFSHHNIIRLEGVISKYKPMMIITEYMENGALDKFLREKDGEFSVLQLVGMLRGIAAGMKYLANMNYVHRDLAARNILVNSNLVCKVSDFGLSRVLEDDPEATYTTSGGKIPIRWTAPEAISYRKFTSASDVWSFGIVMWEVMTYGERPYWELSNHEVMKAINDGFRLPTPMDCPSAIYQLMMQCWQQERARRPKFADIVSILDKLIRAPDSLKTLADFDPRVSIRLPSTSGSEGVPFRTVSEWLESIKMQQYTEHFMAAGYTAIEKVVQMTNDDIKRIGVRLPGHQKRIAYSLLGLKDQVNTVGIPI
T3 sequence (Q15375 579-998 limits assumed): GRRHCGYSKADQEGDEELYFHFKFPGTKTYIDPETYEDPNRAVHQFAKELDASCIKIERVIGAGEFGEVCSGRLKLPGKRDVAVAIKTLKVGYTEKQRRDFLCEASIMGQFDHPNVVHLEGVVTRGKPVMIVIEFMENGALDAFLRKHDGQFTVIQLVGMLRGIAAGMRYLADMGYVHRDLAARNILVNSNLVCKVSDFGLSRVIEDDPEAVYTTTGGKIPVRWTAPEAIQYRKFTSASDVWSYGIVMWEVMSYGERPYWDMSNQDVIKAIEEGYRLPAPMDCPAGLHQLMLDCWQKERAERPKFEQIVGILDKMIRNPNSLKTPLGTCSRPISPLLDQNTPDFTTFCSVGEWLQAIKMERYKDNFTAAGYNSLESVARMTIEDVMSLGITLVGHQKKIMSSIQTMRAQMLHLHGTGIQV

| IC50 [1] | IC50 [2] | IC50 [3, 4] | IC50 ([3]; comparative compounds, read-out: EphA7 potency IC50) | Compound |
| --- | --- | --- | --- | --- |
| 0.01 to 25 nM | 0.01 to 25 nM | 500 to 1000 nM | – | CCc1n[nH]c2nc(-c3cc(NC(=O)c4cc(C)cc(OCCN5CCOCC5)c4)ccc3C)ccc12 [Compound 20, N-[3-(3-Ethyl-1H-pyrazolo[3,4-b]pyridin-6-yl)-4-methyl-phenyl]-3-methyl-5-(2-morpholin-4-yl-ethoxy)-benzamide] |
| 25 to 50 nM | 0.01 to 25 nM | > 1000 nM | – | CCc1n[nH]c2nc(-c3cc(NC(=O)c4cc(C)cc(OCCOC)c4)ccc3C)ccc12 [Compound 21, N-[3-(3-Ethyl-1H-pyrazolo[3,4-b]pyridin-6-yl)-4-methyl-phenyl]-3-(2-methoxy-ethoxy)-5-methyl-benzamide] |
| 50 to 100 nM | – | > 1000 nM | – | COc1cc(OC)cc(C(=O)Nc2ccc(C)c(-c3ccc4c(C5(O)CC5)n[nH]c4n3)c2)c1 [Compound 29, N-{3-[3-(1-Hydroxy-cyclopropyl)-1H-pyrazolo[3,4-b]pyridin-6-yl]-4-methyl-phenyl}-3,5-dimethoxy-benzamide] |
| 25 to 50 nM | 25 to 50 nM | > 1000 nM | – | Cc1ccc(NC(=O)c2cccc(C(F)(F)F)c2)cc1-c1ccc2c(C(C)O)n[nH]c2n1 (centres unmarked) [Compound 35, N-{3-[3-(1-Hydroxy-ethyl)-1H-pyrazolo[3,4-b]pyridin-6-yl]-4-methyl-phenyl}-3-trifluoromethyl-benzamide] |
| – | > 100 nM | > 1000 nM | – | CCc1n[nH]c2nc(-c3cc(NC(=O)c4cc(OC)cc(C(F)(F)F)c4)cnc3C)ccc12 [Compound 49, N-[5-(3-Ethyl-1H-pyrazolo[3,4-b]pyridin-6-yl)-6-methyl-pyridin-3-yl]-3-methoxy-5-trifluoromethyl-benzamide] |
| 50 to 100 nM | 0.01 to 25 nM | 500 to 1000 nM | – | CCc1n[nH]c2nc(-c3cc(NC(=O)c4cc(C)cc(C)c4)cnc3C)ccc12 [Compound 50, N-[5-(3-Ethyl-1H-pyrazolo[3,4-b]pyridin-6-yl)-6-methyl-pyridin-3-yl]-3,5-dimethyl-benzamide] |
| 0.01 to 25 nM | 0.01 to 25 nM | 500 to 1000 nM | – | Cc1ccc(NC(=O)c2cccc(C(F)(F)F)c2)cc1-c1ccc2c([C@H](C)O)n[nH]c2n1 [Compound 55, N-{3-[3-((S)-1-Hydroxy-ethyl)-1H-pyrazolo[3,4-b]pyridin-6-yl]-4-methyl-phenyl}-3-trifluoromethyl-benzamide] |
| – | – | – | > 1000 nM | Cc1ccc(NC(=O)c2cccc(C(F)(F)F)c2)cc1-c1cc(C)c2c(N)n[nH]c2n1 [Compound A, N-(3-(3-amino-4-methyl-1H-pyrazolo[3,4-b]pyridin-6-yl)-4-methylphenyl)-3-(trifluoromethyl)benzamide] |

More lines, now with the values behind:

| Compound | IC50 [1] | IC50 [2] | IC50 [3, 4] | IC50 ([3]; comparative compounds, read-out: EphA7 potency IC50) |
| --- | --- | --- | --- | --- |
| Cc1ccc(NC(=O)c2cccc(C(F)(F)F)c2)cc1-c1ccc2c(C(O)CN3CCOCC3)n[nH]c2n1 (centres unmarked) [Compound 2, N-{3-[3-(1-Hydroxy-2-morpholin-4-yl-ethyl)-1H-pyrazolo[3,4-b]pyridin-6-yl]-4-methyl-phenyl}-3-trifluoromethyl-benzamide] | 50 to 100 nM | 0.01 to 25 nM | – | – |
| Cc1cccc(C(=O)Nc2ccc(C)c(-c3ccc4c(C(O)CN5CCOCC5)n[nH]c4n3)c2)c1 (centres unmarked) [Compound 3, N-{3-[3-(1-Hydroxy-2-morpholin-4-yl-ethyl)-1H-pyrazolo[3,4-b]pyridin-6-yl]-4-methyl-phenyl}-3-methyl-benzamide] | – | 0.01 to 25 nM | > 1000 nM | – |
| COc1cc(OC)cc(C(=O)Nc2ccc(C)c(-c3ccc4c(C(O)CN5CCOCC5)n[nH]c4n3)c2)c1 (centres unmarked) [Compound 4, N-{3-[3-(1-Hydroxy-2-morpholin-4-yl-ethyl)-1H-pyrazolo[3,4-b]pyridin-6-yl]-4-methyl-phenyl}-3,5-dimethoxy-benzamide] | > 100 nM | 25 to 50 nM | > 1000 nM | – |
| Cc1ccc(C(=O)Nc2cccc(C(F)(F)F)c2)cc1-c1ccc2c(C(O)CN3CCOCC3)n[nH]c2n1 (centres unmarked) [Compound 5, 3-[3-(1-Hydroxy-2-morpholin-4-yl-ethyl)-1H-pyrazolo[3,4-b]pyridin-6-yl]-4-methyl-N-(3-trifluoromethyl-phenyl)-benzamide] | 0.01 to 25 nM | 25 to 50 nM | 250 to 500 nM | – |
| Cc1ccc(NC(=O)c2cccc(N(C)C)c2)cc1-c1ccc2c(C(O)CN3CCOCC3)n[nH]c2n1 (centres unmarked) [Compound 6, 3-Dimethylamino-N-{3-[3-(1-hydroxy-2-morpholin-4-yl-ethyl)-1H-pyrazolo[3,4-b]pyridin-6-yl]-4-methyl-phenyl}-benzamide] | 50 to 100 nM | 25 to 50 nM | > 1000 nM | – |
| COc1cc(OC)cc(C(=O)Nc2ccc(C)c(-c3ccc4c(C(C)O)n[nH]c4n3)c2)c1 (centres unmarked) [Compound 9, N-{3-[3-(1-Hydroxy-ethyl)-1H-pyrazolo[3,4-b]pyridin-6-yl]-4-methyl-phenyl}-3,5-dimethoxy-benzamide] | 25 to 50 nM | 25 to 50 nM | > 1000 nM | – |
| COc1cc(OC)cc(C(=O)Nc2ccc(C)c(-c3ccc4c(C)n[nH]c4n3)c2)c1 [Compound 11, 3,5-Dimethoxy-N-[4-methyl-3-(3-methyl-1H-pyrazolo[3,4-b]pyridin-6-yl)-phenyl]-benzamide] | 0.01 to 25 nM | 0.01 to 25 nM | > 1000 nM | – |
| CCc1n[nH]c2nc(-c3cc(NC(=O)c4cc(OC)cc(OC)c4)cnc3C)ccc12 [Compound 13, N-[5-(3-Ethyl-1H-pyrazolo[3,4-b]pyridin-6-yl)-6-methyl-pyridin-3-yl]-3,5-dimethoxy-benzamide] | 50 to 100 nM | 25 to 50 nM | > 1000 nM | – |
| Cc1cc(C)cc(C(=O)Nc2ccc(C)c(-c3ccc4c(CO)n[nH]c4n3)c2)c1 [Compound 16, N-[3-(3-Hydroxymethyl-1H-pyrazolo[3,4-b]pyridin-6-yl)-4-methyl-phenyl]-3,5-dimethyl-benzamide] | 0.01 to 25 nM | 0.01 to 25 nM | > 1000 nM | – |
| COc1cc(OC)cc(C(=O)Nc2cnc(C)c(-c3ccc4c(C)n[nH]c4n3)c2)c1 [Compound 17, 3,5-Dimethoxy-N-[6-methyl-5-(3-methyl-1H-pyrazolo[3,4-b]pyridin-6-yl)-pyridin-3-yl]-benzamide] | 50 to 100 nM | 25 to 50 nM | – | – |
